According to patent US20240246964A1 (Arbutus Biopharma Corporation, priority 2021, published 2024):

Assays:
[1] = target: PD-L1 His protein / PD-1 Fc protein (Homo sapiens (Human), UniProt Q9NZQ7); assay: HTRF Assay (PD-1/PD-L1 interaction); type: binding; details: PD-L1 His 6 nM, PD-1 Fc 6 nM
human PD-L1 = human PD-L1 (Homo sapiens (Human), UniProt Q9NZQ7); assay: T cell activation luciferase reporter cell culture system (T Cell Activation Assay); type: cell-based; details: luciferase reporter assay; PD-L1 aAPC/CHO-K1 cells with PD-1 effector Jurkat T cells
Chain of human PD-L1 (Q9NZQ7 19-290): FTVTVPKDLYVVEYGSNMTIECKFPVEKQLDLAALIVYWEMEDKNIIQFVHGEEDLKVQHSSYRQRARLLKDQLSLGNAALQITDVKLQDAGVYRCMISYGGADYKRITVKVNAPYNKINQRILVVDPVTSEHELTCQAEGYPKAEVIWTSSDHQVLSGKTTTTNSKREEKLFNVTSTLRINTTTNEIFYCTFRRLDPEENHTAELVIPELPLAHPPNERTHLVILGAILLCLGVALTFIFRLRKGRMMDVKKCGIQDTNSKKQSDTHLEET

Chain of PD-L1 His protein / PD-1 Fc protein (Q9NZQ7 19-238): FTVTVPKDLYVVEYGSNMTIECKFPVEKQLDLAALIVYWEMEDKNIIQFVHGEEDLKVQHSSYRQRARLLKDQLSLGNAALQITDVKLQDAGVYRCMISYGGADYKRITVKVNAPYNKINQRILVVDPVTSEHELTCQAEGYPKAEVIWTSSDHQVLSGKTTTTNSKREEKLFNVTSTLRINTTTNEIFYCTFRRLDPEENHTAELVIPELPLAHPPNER

COc1cc(-c2nccc(-c3cccc(-c4ccc(CN[C@H]5C[C@](C)(O)C5)c(OC)n4)c3Cl)c2Cl)ccc1CN1CC2(CNC(=O)C2)C1 [Example 517, 2-(4-(3-Chloro-4-(2-chloro-3-(5-((((1r,3r)-3-hydroxy-3-methylcyclobutyl)-amino)methyl)-6-methoxypyridin-2-yl)phenyl)pyridin-2-yl)-2-methoxybenzyl)-2,6-diazaspiro[3.4]octan-7-one] showed an IC50 [1] of 1.55 nM and an EC50 (human PD-L1) of 17 nM.
For COc1cc(-c2nccc(-c3cccc(-c4ccc(CN5CC(C)(O)C5)c(OC)n4)c3Cl)c2Cl)ccc1CN1CC2(CNC(=O)C2)C1 [Example 518, 2-(4-(3-Chloro-4-(2-chloro-3-(5-((3-hydroxy-3-methylazetidin-1-yl)methyl)-6-methoxypyridin-2-yl)phenyl)pyridin-2-yl)-2-methoxybenzyl)-2,6-diazaspiro[3.4]octan-7-one], the IC50 [1] was 2.42 nM and the EC50 (human PD-L1) was 9.77 nM.
For COc1cc(-c2nccc(-c3cccc(-c4ccc(CN5CC6(C5)CN(C(C)=O)C6)c(OC)n4)c3Cl)c2Cl)ccc1CN1CC2(CNC(=O)C2)C1 [Example 519, 2-(4-(4-(3-(5-((6-Acetyl-2,6-diazaspiro[3.3]heptan-2-yl)methyl)-6-methoxypyridin-2-yl)-2-chlorophenyl)-3-chloropyridin-2-yl)-2-methoxybenzyl)-2,6-diazaspiro[3.4]octan-7-one], the IC50 [1] was 1.86 nM and the EC50 (human PD-L1) was 12.8 nM.
COc1cc(-c2ncnc(-c3cccc(-c4ccc(CNC5CCN(C(C)=O)CC5)c(OC)n4)c3Cl)c2C)ccc1CNC1CCN(C(C)=O)CC1 [Example 522, 1-(4-(((6-(3-(6-(4-(((1-Acetylpiperidin-4-yl)amino)methyl)-3-methoxyphenyl)-5-methylpyrimidin-4-yl)-2-chlorophenyl)-2-methoxypyridin-3-yl)methyl)amino)piperidin-1-yl)ethan-1-one] was tested, and the IC50 [1] was 2.05 nM and the EC50 (human PD-L1) was ≥ 10000 nM.
In the case of COc1cc(-c2nccc(-c3cccc(-c4ccc(CNC5CCOCC5)c(OC)n4)c3C(F)(F)F)c2Cl)ccc1CNC1CCOCC1 [Example 529, N-((6-(3-(3-Chloro-2-(3-methoxy-4-(((tetrahydro-2H-pyran-4-yl)amino)methyl)phenyl)pyridin-4-yl)-2-(trifluoromethyl)phenyl)-2-methoxypyridin-3-yl)methyl)tetrahydro-2H-pyran-4-amine], the IC50 [1] is reported as 110 nM and the EC50 (human PD-L1) is reported as ≥ 10000 nM.
COc1cc(-c2nccc(-c3cccc(-c4ccc(CNC5CCOCC5)c(OC)n4)c3Cl)c2Cl)ccc1CN1CC2(CCOCC2)C1 [Example 530, N-((6-(3-(2-(4-((7-Oxa-2-azaspiro[3.5]nonan-2-yl)methyl)-3-methoxyphenyl)-3-chloropyridin-4-yl)-2-chlorophenyl)-2-methoxypyridin-3-yl)methyl)tetrahydro-2H-pyran-4-amine] showed an IC50 [1] of 2.51 nM and an EC50 (human PD-L1) of 39.5 nM.
With COc1cc(-c2nccc(-c3cccc(-c4ccc(CN5CCC(C(C)=O)CC5)c(OC)n4)c3Cl)c2Cl)ccc1CN1CCC(C(C)=O)CC1 [Example 536, 1-(1-((6-(3-(2-(4-((4-Acetylpiperidin-1-yl)methyl)-3-methoxyphenyl)-3-chloropyridin-4-yl)-2-chlorophenyl)-2-methoxypyridin-3-yl)methyl)piperidin-4-yl)ethan-1-one] the IC50 [1] was 6.7 nM and the EC50 (human PD-L1) was ≥ 10000 nM.
In the case of COc1cc(-c2ncnc(-c3cccc(-c4ccc(CN5CC6(C5)CN(C(C)=O)C6)c(OC)n4)c3Cl)c2C)ccc1CN1CC2(C1)CN(C(C)=O)C2 [Example 538, 1-(6-((6-(3-(6-(4-((6-Acetyl-2,6-diazaspiro[3.3]heptan-2-yl)methyl)-3-methoxyphenyl)-5-methylpyrimidin-4-yl)-2-chlorophenyl)-2-methoxypyridin-3-yl)methyl)-2,6-diazaspiro[3.3]heptan-2-yl)ethan-1-one], the IC50 [1] is reported as 2.59 nM and the EC50 (human PD-L1) is reported as ≥ 10000 nM.
COc1cc(-c2ncnc(-c3cccc(-c4ccc(CNC5CCN(C(C)=O)CC5)c(OC)n4)c3Cl)c2Cl)ccc1CNC1CCN(C(C)=O)CC1 [Example 540, 1-(4-(((6-(3-(6-(4-(((1-Acetylpiperidin-4-yl)amino)methyl)-3-methoxyphenyl)-5-chloropyrimidin-4-yl)-2-chlorophenyl)-2-methoxypyridin-3-yl)methyl)amino)piperidin-1-yl)ethan-1-one] gave an IC50 [1] of 0.5 nM and an EC50 (human PD-L1) of 86.6 nM.
Work on COc1cc(-c2nccc(-c3cccc(-c4ccc(CN[C@@H]5CCC(=O)NC5)c(OC)n4)c3Cl)c2Cl)ccc1CNC1CCN(C(C)=O)CC1 [Example 541, (R)-5-(((6-(3-(2-(4-(((1-Acetylpiperidin-4-yl)amino)methyl)-3-methoxyphenyl)-3-chloropyridin-4-yl)-2-chlorophenyl)-2-methoxypyridin-3-yl)methyl)amino)piperidin-2-one] yielded an IC50 [1] of 0.79 nM and an EC50 (human PD-L1) of 93.4 nM.
For COc1cc(-c2nccc(-c3cccc(-c4ccc(CN[C@H]5CCC(=O)NC5)c(OC)n4)c3Cl)c2Cl)ccc1CNC1CCN(C(C)=O)CC1 [Example 542, (S)-5-(((6-(3-(2-(4-(((1-Acetylpiperidin-4-yl)amino)methyl)-3-methoxyphenyl)-3-chloropyridin-4-yl)-2-chlorophenyl)-2-methoxypyridin-3-yl)methyl)amino)piperidin-2-one], the IC50 [1] was 0.53 nM and the EC50 (human PD-L1) was 79.2 nM.
For COc1cc(-c2ncnc(-c3cccc(-c4ccc(CNC[C@@H]5CCC(=O)N5)c(OC)n4)c3Cl)c2Cl)ccc1CNC[C@@H]1CCC(=O)N1 [Example 543, (S)-5-((((6-(2-chloro-3-(5-chloro-6-(3-methoxy-4-(((((S)-5-oxopyrrolidin-2-yl)methyl)amino)methyl)phenyl)pyrimidin-4-yl)phenyl)-2-methoxypyridin-3-yl)methyl)amino)methyl)pyrrolidin-2-one], the IC50 [1] was 0.29 nM and the EC50 (human PD-L1) was 17.5 nM.
COCCC(=O)N1CCC(NCc2ccc(-c3nccc(-c4cccc(-c5ccc(CNC6CCN(C(=O)CCOC)CC6)c(OC)n5)c4Cl)c3Cl)cc2OC)CC1 [Example 546, 1-(4-(((6-(2-Chloro-3-(3-chloro-2-(3-methoxy-4-(((1-(3-methoxypropanoyl)piperidin-4-yl)amino)methyl)phenyl)pyridin-4-yl)phenyl)-2-methoxypyridin-3-yl)methyl)amino)piperidin-1-yl)-3-methoxypropan-1-one] showed an IC50 [1] of 1.25 nM and an EC50 (human PD-L1) of 19.5 nM.
Molecule COc1nc(-c2ccnc(-c3cccc4c3CC[C@@H]4Oc3nc(OC)c(CNC4CCN(C(C)=O)CC4)cc3C(F)(F)F)c2Cl)ccc1CN1CC2(CNC(=O)C2)C1 [Example 551, (S)-2-((2′-(1-((5-(((1-Acetylpiperidin-4-yl)amino)methyl)-6-methoxy-3-(trifluoromethyl)pyridin-2-yl)oxy)-2,3-dihydro-1H-inden-4-yl)-3′-chloro-6-methoxy-[2,4′-bipyridin]-5-yl)methyl)-2,6-diazaspiro[3.4]octan-7-one] has an IC50 [1] of 0.32 nM and an EC50 (human PD-L1) of 182 nM.
COc1nc(-c2ccnc(-c3cccc4c3CC[C@@H]4Oc3nc(OC)c(CNC4CCOCC4)cc3C(F)(F)F)c2Cl)ccc1CN1CC2(CNC(=O)C2)C1 [Example 552, (S)-2-((3′-Chloro-6-methoxy-2′-(1-((6-methoxy-5-(((tetrahydro-2H-pyran-4-yl)amino)methyl)-3-(trifluoromethyl)pyridin-2-yl)oxy)-2,3-dihydro-1H-inden-4-yl)-[2,4′-bipyridin]-5-yl)methyl)-2,6-diazaspiro[3.4]octan-7-one] was tested, and the IC50 [1] was 0.25 nM and the EC50 (human PD-L1) was 144 nM.
With COc1cc(-c2nccc(-c3cccc(-c4ccc5c(CNC6CCOCC6)cn(C)c5n4)c3Cl)c2Cl)ccc1CNC1CCN(C(C)=O)CC1 [Example 556, 1-(4-((4-(3-Chloro-4-(2-chloro-3-(1-methyl-3-(((tetrahydro-2H-pyran-4-yl)amino)methyl)-1H-pyrrolo[2,3-b]pyridin-6-yl)phenyl)pyridin-2-yl)-2-methoxybenzyl)amino)piperidin-1-yl)ethan-1-one] the IC50 [1] was 1.22 nM and the EC50 (human PD-L1) was 222 nM.
COc1cc(-c2nccc(-c3cccc(-c4ccc5c(CNCCO)cn(C)c5n4)c3Cl)c2Cl)ccc1CNC1CCN(C(C)=O)CC1 [Example 559, 1-(4-((4-(3-Chloro-4-(2-chloro-3-(3-(((2-hydroxyethyl)amino)methyl)-1-methyl-1H-pyrrolo[2,3-b]pyridin-6-yl)phenyl)pyridin-2-yl)-2-methoxybenzyl)amino)piperidin-1-yl)ethan-1-one] gave an IC50 [1] of 1.61 nM and an EC50 (human PD-L1) of 73.2 nM.
COc1cc(-c2nccc(-c3cccc(-c4cnc(CNC5CCN(C(C)=O)CC5)c(OC)c4)c3Cl)c2Cl)ccc1CNC1CCN(C(C)=O)CC1 [Example 565, 1-(4-(((5-(3-(2-(4-(((1-acetylpiperidin-4-yl)amino)methyl)-3-methoxyphenyl)-3-chloropyridin-4-yl)-2-chlorophenyl)-3-methoxypyridin-2-yl)methyl)amino)piperidin-1-yl)ethan-1-one] showed an IC50 [1] of 1.72 nM and an EC50 (human PD-L1) of 1040 nM.
In the case of COc1cc(-c2nccc(-c3cccc(-c4ccc(CN5CC6(COC6)C5)c(OC)n4)c3C(F)(F)F)c2Cl)ccc1CN1CC2(COC2)C1 [Example 578, 6-(4-(4-(3-(5-((2-Oxa-6-azaspiro[3.3]heptan-6-yl)methyl)-6-methoxypyridin-2-yl)-2-(trifluoromethyl)phenyl)-3-chloropyridin-2-yl)-2-methoxybenzyl)-2-oxa-6-azaspiro[3.3]heptane], the IC50 [1] is reported as 70.3 nM and the EC50 (human PD-L1) is reported as ≥ 10000 nM.
With COc1nc(-c2cccc(-c3ccnc(-c4ccc5c(c4)S(=O)(=O)CCN(C[C@@H]4CCC(=O)N4)C5)c3Cl)c2Cl)ccc1CNC[C@@H]1CCC(=O)N1 [Example 582, (S)-5-((((6-(2-Chloro-3-(3-chloro-2-(1,1-dioxido-4-(((S)-5-oxopyrrolidin-2-yl)methyl)-2,3,4,5-tetrahydrobenzo[f][1,4]thiazepin-8-yl)pyridin-4-yl)phenyl)-2-methoxypyridin-3-yl)methyl)amino)methyl)pyrrolidin-2-one] the IC50 [1] was 1.58 nM and the EC50 (human PD-L1) was 1040 nM.
